Measurements taken from patent US9266834B2, “1, 4-disubstituted 3-cyano-pyridone derivatives and their use as positive allosteric modulators of MGLUR2-receptors” (JANSSEN PHARMACEUTICALS, INC., priority 2006, dated 2016).

Molecular target: T1, human mGluR2 receptor (Homo sapiens, UniProt Q14416)
T1 construct: expressed in transfected cells; host or cells: CHO cells (membrane preparation)
Experiment: [35S]GTPγS binding assay (GTPγS-PAM): positive allosteric modulation in presence of glutamate at EC25, membranes from transfected CHO cells
Type: biochemical
Details: in presence of mGluR2 agonist glutamate at predetermined EC25 concentration, averages of duplicate values of 11-concentration response curves; for EC50: read-out: GTPgS - hR2 PAM pEC50 (converted)
Text: The compounds provided in the present invention are positive allosteric modulators of mGluR2. These compounds appear to potentiate glutamate responses by binding to an allosteric site other than the glutamate binding site. The response of mGluR2 to a concentration of glutamate is increased when compounds of Formula (I) are present. Compounds of Formula (I) are expected to have their effect substantially at mGluR2 by virtue of their ability to enhance the function of the receptor. The behaviour of positive allosteric modulators tested at mGluR2 using the [^35S]GTPγS binding assay method described below and which is suitable for the identification of such compounds, and more particularly the compounds according to Formula (I), are shown in Table 4.
[^35S]GTPγS Binding Assay
The [^35S]GTPγS binding is a functional membrane-based assay used to study G-protein coupled receptor (GPCR) function whereby incorporation of a non-hydrolysable form of GTP, [^35S]GTPγS (guanosine 5′-triphosphate, labelled with […] ^35S), is measured. The G-protein o subunit catalyzes the exchange of guanosine 5′-diphosphate (GDP) by guanosine triphosphate (GTP) and on activation of the GPCR by an agonist, [^35S]GTPγS, becomes incorporated and cannot be cleaved to continue the exchange cycle (Harper (1998) Current Protocols in Pharmacology 2.6.1-10, John Wiley & Sons, Inc.). […] Here we describe the use of the [^35S]GTPγS binding assay using membranes from cells transfected with the human mGluR2 receptor and adapted from Schaffhauser et al ((2003) Molecular Pharmacology 4:798-810) for the detection of the positive allosteric modulation (PAM) properties of the compounds of this invention.
CHO-cells were cultured to pre-confluence and stimulated with 5 mM butyrate for 24 hours, prior to washing in PBS, and then collection by scraping in homogenisation buffer (50 mM Tris-HCl buffer, pH 7.4, 4° C.). Cell lysates were homogenized briefly (15 s) using an ultra-turrax homogenizer. The homogenate was centrifuged at 23 500×g for 10 minutes and the supernatant discarded. The pellet was resuspended in 5 mM Tris-HCl, pH 7.4 and centrifuged again (30 000×g, 20 min, 4° C.). The final pellet was resuspended in 50 mM HEPES, pH 7.4 and stored at −80° C. in appropriate aliquots before use. Protein concentration was determined by the Bradford method (Bio-Rad, USA) with bovine serum albumin as standard.
Measurement of mGluR2 positive allosteric modulators in membranes containing human mGluR2 was performed using frozen membranes that were thawed and briefly homogenised prior to pre-incubation in 96-well microplates (15 μg/assay well, 30 minutes, 30° C.) in assay buffer (50 mM HEPES pH 7.4, 100 mM NaCl, 3 mM MgCl2, 50 μM GDP, 10 μg/ml saponin,) with increasing concentrations of positive allosteric modulator (from 0.3 nM to 50 μM) and either a minimal pre-determined concentration of glutamate (PAM assay), or no added glutamate. For the PAM assay, membranes were pre-incubated with glutamate at EC25 concentration, i.e. a concentration that gives 25% of the maximal response glutamate, and is in accordance to published data (Pin et al. (1999) Eur. J. Pharmacol. 375:277-294). After addition of [^35S]GTPγS (0.1 nM, f.c.) to achieve a total reaction volume of 200 μl, microplates were shaken briefly and further incubated to allow [^35S]GTPγS incorporation on activation (30 minutes, 30° C.). The reaction was stopped by rapid vacuum filtration over glass-fibre filter plates (Unifilter 96-well GF/B filter plates, Perkin-Elmer, Downers Grove, USA) microplate using a 96-well plate cell harvester (Filtermate, Perkin-Elmer, USA), and then by washing three times with 300 μl of ice-cold wash buffer (Na2PO4.2H2O 10 mM, NaH2PO4.H2O 10 mM, pH=7.4). Filters were then air-dried, and 40 μl of liquid scintillation cocktail (Microscint-O) was added to each well, and membrane-bound [^35S]GTPγS was measured in a 96-well scintillation plate reader (Top-Count, Perkin-Elmer, USA). […]

T1 sequence (Q14416 19-872): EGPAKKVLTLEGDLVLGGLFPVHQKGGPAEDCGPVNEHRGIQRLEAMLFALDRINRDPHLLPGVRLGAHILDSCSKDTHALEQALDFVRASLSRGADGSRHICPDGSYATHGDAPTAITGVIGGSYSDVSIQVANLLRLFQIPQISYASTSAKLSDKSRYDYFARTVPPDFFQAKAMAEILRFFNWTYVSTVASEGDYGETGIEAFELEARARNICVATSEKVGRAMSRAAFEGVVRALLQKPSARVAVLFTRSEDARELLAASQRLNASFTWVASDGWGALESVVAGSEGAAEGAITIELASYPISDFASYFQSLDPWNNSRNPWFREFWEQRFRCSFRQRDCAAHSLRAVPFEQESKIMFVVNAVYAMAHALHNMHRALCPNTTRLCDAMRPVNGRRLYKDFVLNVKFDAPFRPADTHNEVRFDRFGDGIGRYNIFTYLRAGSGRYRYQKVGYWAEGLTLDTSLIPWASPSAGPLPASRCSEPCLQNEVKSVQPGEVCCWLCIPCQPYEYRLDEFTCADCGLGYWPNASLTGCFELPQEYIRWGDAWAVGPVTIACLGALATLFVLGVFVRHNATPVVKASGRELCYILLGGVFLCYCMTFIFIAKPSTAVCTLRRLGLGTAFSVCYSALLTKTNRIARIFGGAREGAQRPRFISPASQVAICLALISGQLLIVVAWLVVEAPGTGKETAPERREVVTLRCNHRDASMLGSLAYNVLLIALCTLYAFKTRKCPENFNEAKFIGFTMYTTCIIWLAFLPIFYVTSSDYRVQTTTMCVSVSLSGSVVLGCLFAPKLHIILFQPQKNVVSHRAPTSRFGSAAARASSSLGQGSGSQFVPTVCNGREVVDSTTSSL

Row | SMILES | EC50 | GTPgS - hR2 PAM pEC50
1 | CCOc1ccc(-c2ccn(CCC(C)C)c(=O)c2C#N)cc1 [1-104] | 2000 nM | –
2 | CC(C)CCn1ccc(N2CCN(c3ccccn3)CC2)c(C#N)c1=O [2-024] | 2000 nM | –
3 | CC(C)CCn1ccc(N2CCN(Cc3ccccc3)CC2C)c(C#N)c1=O (stereo not drawn) [2-021] | 1260 nM | –
4 | N#Cc1c(-c2ccc(OCC3CC3)cc2F)ccn(CC2CC2)c1=O [1-003] | 631 nM | –
5 | N#Cc1c(OCc2ccc(CN3CCOCC3)cc2)ccn(Cc2ccc(OC(F)(F)F)cc2)c1=O [1-271] | 158 nM | –
6 | CC(C)CCn1ccc(-c2ccc(Oc3ccncc3)cc2F)c(C#N)c1=O [1-161] | 631 nM | –
7 | COc1ccc(-c2ccn(Cc3cccc(Cl)c3)c(=O)c2C#N)cc1 [1-026] | 501 nM | –
8 | CC(C)CCn1ccc(N2CCN(CCOc3ccc(F)cc3)CC2)c(C#N)c1=O [2-019] | 6310 nM | –
9 | CCCCn1ccc(Oc2ccc(Br)cc2)c(C#N)c1=O [1-273] | 631 nM | –
10 | CC(C)CCn1ccc(-c2ccc(Nc3ccccc3)cc2)c(C#N)c1=O [1-193] | 5010 nM | –
11 | N#Cc1c(N2CCN(Cc3cccc(F)c3)CC2)ccn(Cc2ccc(F)cc2)c1=O [2-050] | 2510 nM | –
12 | CC(C)CCn1ccc(-c2ccc(OCc3ccccc3)cc2)c(C#N)c1=O [1-141] | 63.1 nM | –
13 | CC(C)CCn1ccc(-c2ccc(CNCc3ccccc3F)cc2)c(C#N)c1=O [1-198] | 1260 nM | –
14 | CC(C)CCn1ccc(-c2ccc(NCc3ccc(OC(F)(F)F)cc3)cc2)c(C#N)c1=O [1-205] | 251 nM | –
15 | COc1cc(F)c(-c2ccn(CCC(C)C)c(=O)c2C#N)c(F)c1 [1-116] | 631 nM | –
16 | N#Cc1c(OCc2ccccc2)ccn(Cc2ccc(OC(F)(F)F)cc2)c1=O [1-272] | 126 nM | –
17 | CC(C)CCn1ccc(OCc2ccc(C#N)cc2)c(C#N)c1=O [1-286] | 3980 nM | –
18 | COc1ccc(N2CCN(c3ccn(CCC(C)C)c(=O)c3C#N)CC2)cc1 [2-013] | 794 nM | –
19 | CCCCn1ccc(-c2ccc(Oc3ccnc(N4CCOCC4)c3)cc2)c(C#N)c1=O [1-073] | 398 nM | –
20 | CC(C)CCn1ccc(OCCc2ccccc2)c(C#N)c1=O [1-276] | 2510 nM | –
21 | C[C@@H]1CN(c2ccn(CC3CC3)c(=O)c2C#N)C[C@H](C)N1c1ncccn1 [2-041] | 3160 nM | –
22 | COc1ccc(-c2ccn(Cc3ccc(F)cc3)c(=O)c2C#N)cc1 [1-022] | 316 nM | –
23 | CC(C)CCn1ccc(Nc2ccc(Oc3ccncc3)cc2)c(C#N)c1=O [1-302] | 1260 nM | –
24 | COc1ccc(-c2ccn(Cc3ccc(Cl)cc3)c(=O)c2C#N)cc1 [1-027] | 501 nM | –

Row | SMILES | EC50 | GTPgS - hR2 PAM pEC50
25 | CC(C)CCn1ccc(N2CCN(c3ccccc3)CC2)c(C#N)c1=O [2-011] | 501 nM | –
26 | CC(C)CCn1ccc(-c2ccc(N(C)Cc3ccccc3)cc2)c(C#N)c1=O [1-196] | 39.8 nM | –
27 | CC(C)CCn1ccc(-c2ccc(C3(C(N)=O)CC3)cc2)c(C#N)c1=O [1-246] | 3980 nM | –
28 | CC(C)CCn1ccc(Nc2ccccc2)c(C#N)c1=O [1-298] | 3980 nM | –
29 | CC(C)CCn1ccc(N2CCN(c3ncccn3)CC2)c(C#N)c1=O [2-028] | 794 nM | –
30 | CCCCn1ccc(N2CCN(c3nc(C)cc(C)n3)CC2)c(C#N)c1=O [2-005] | – | 6.2
31 | N#Cc1c(Nc2ccc(Oc3ccncc3)cc2)ccn(CC2CC2)c1=O [1-295] | 3980 nM | –
32 | CCCCn1ccc(-c2cccc(Oc3ccccn3)c2)c(C#N)c1=O [1-061] | 6310 nM | –
33 | CC(C)CCn1ccc(-c2ccc(NC3CC3)cc2)c(C#N)c1=O [1-187] | 126 nM | –
34 | CC(C)CCn1ccc(-c2ccc(COCC#N)cc2)c(C#N)c1=O [1-132] | 2000 nM | –
35 | N#Cc1c(N[C@@H]2C[C@H]2c2ccccc2)ccn(CC2CC2)c1=O (racemic) [1-294] | 3160 nM | –
36 | CC(C)CCn1ccc(-c2ccc(N3Cc4ccccc4C3)cc2)c(C#N)c1=O [1-237] | 398 nM | –
37 | COc1ccc(-c2ccn(Cc3cccc(C)c3)c(=O)c2C#N)cc1 [1-017] | 1000 nM | –
38 | CC(C)CCn1ccc(-c2ccc(F)cc2)c(C#N)c1=O [1-089] | 3160 nM | –
39 | COc1ccc(C=Cc2ccn(CCC(C)C)c(=O)c2C#N)cc1 [1-266] | 316 nM | –
40 | COc1cc(-c2ccn(CCC(C)C)c(=O)c2C#N)ccc1O [1-108] | 6310 nM | –
41 | N#Cc1c(N2CCN(Cc3cc(F)cc(F)c3)CC2)ccn(Cc2ccc(F)cc2)c1=O [2-052] | 3980 nM | –
42 | CC(C)CCn1ccc(-c2ccc(NCc3cccnc3)cc2)c(C#N)c1=O [1-209] | 1260 nM | –
43 | CC(C)CCn1ccc(-c2ccc(-n3ccnn3)cc2)c(C#N)c1=O [1-236] | 2000 nM | –
44 | CC(=O)CCNc1ccc(-c2ccn(CCC(C)C)c(=O)c2C#N)cc1 [1-180] | 316 nM | –
45 | Cc1ccc(-c2ccn(CCC(C)C)c(=O)c2C#N)cc1[N+](=O)[O-] [1-214] | 794 nM | –
46 | COc1cc(-c2ccn(CCC(C)C)c(=O)c2C#N)ccc1OC(C)=O [1-125] | 5010 nM | –
47 | CCCCn1ccc(-c2cccc(Oc3ccncc3)c2)c(C#N)c1=O [1-062] | 6310 nM | –

More lines, now with the values ahead:

Row | EC50 | GTPgS - hR2 PAM pEC50 | SMILES
48 | 251 nM | – | CN(Cc1cccc(C(F)(F)F)c1)C1CCN(c2ccn(Cc3ccc(F)cc3)c(=O)c2C#N)CC1 [4-058]
49 | 200 nM | – | CCOc1ccccc1OC1CCN(c2ccn(CCC(C)C)c(=O)c2C#N)CC1 [4-021]
50 | 1580 nM | – | CC(C)CCn1ccc(N2CCC(N(C)Cc3ccccc3)CC2)c(C#N)c1=O [4-026]
51 | 6310 nM | – | CC(C)CCn1ccc(N2CCC(NCc3cccc(C(F)(F)F)c3)CC2)c(C#N)c1=O [4-024]
52 | 501 nM | – | CCCCn1ccc(N2CCC(Oc3ccc(C#N)cc3)CC2)c(C#N)c1=O [4-009]
53 | 501 nM | – | CCCCn1ccc(N2CCC(COc3ccccn3)CC2)c(C#N)c1=O [4-006]
54 | 1580 nM | – | CCCCn1ccc(N2CCC(CCOc3cccnc3)CC2)c(C#N)c1=O [4-008]
55 | 126 nM | – | COC1(c2ccccc2)CCN(c2ccn(CCC(C)C)c(=O)c2C#N)CC1 [4-045]
56 | 2000 nM | – | CC(C)CCn1ccc(N2CCC(C(F)(F)F)CC2)c(C#N)c1=O [4-010]
57 | 2000 nM | – | CCCCn1ccc(N2CCC(c3ccccn3)CC2)c(C#N)c1=O [4-001]
58 | 398 nM | – | CC(C)CCn1ccc(-c2ccc3c(cnn3Cc3ccncc3)c2)c(C#N)c1=O [5-025]
59 | 1580 nM | – | N#Cc1c(C#Cc2ccncc2)ccn(CC2CCCCC2)c1=O [5-049]
60 | 1260 nM | – | CCCCn1ccc(OC2CCN(Cc3cccc(C(F)(F)F)c3)CC2)c(C#N)c1=O [3-002]
61 | 251 nM | – | CC(C)CCn1ccc(N2CCC3(CC2)COc2ccccc2O3)c(C#N)c1=O [5-036]
62 | 3980 nM | – | Cc1onc(-c2ccccc2)c1COc1ccn(CCC(C)C)c(=O)c1C#N [5-045]
63 | 5010 nM | – | CN(Cc1ccccc1)C1CCN(c2ccn(Cc3ccc(F)cc3)c(=O)c2C#N)CC1 [4-056]
64 | 126 nM | – | Cc1ccc(OC2CCN(c3ccn(CCC(C)C)c(=O)c3C#N)CC2)cc1 [4-017]
65 | 1260 nM | – | CC(C)CCn1ccc(C2CCN(Cc3ccccc3)C2)c(C#N)c1=O (stereo not drawn) [5-007]
66 | 316 nM | – | Cc1nc(-c2ccccc2)sc1-c1ccn(CCC(C)C)c(=O)c1C#N [5-028]
67 | 501 nM | – | CCCCn1ccc(N2CCC(Oc3ccccn3)CC2)c(C#N)c1=O [4-005]
68 | 794 nM | – | CC(C)CCn1ccc(-c2cccc3[nH]ccc23)c(C#N)c1=O [5-017]
69 | 200 nM | – | CC(C)CCn1ccc(C2CCN(Cc3cccc(C(F)(F)F)c3)CC2)c(C#N)c1=O [3-014]
